Experimental data taken from patent US20120258042A1, “COMBINED USE OF TGF-B SIGNALING INHIBITOR AND ANTITUMOR AGENT” (priority 2006, published 2012).
Read-outs that look alike come from different tables or passages of the source.

Tests used:
[1] = test system: existing vasculature of general organs (brain, liver, kidney); assay: 3-2 General organs, vasculature morphological change and dextran distribution; type: in vivo, nude mice; conditions: LY 1 mg/kg i.p.
Source text: Brain, liver and kidney were extracted from animals used in 3-1 to carry out histological search.

[2] = test system: TGFbRII-mutant pancreatic adenocarcinoma cell line MIA PaCa-2; assay: 3-8 MIA PaCa-2 xenograft tumor growth curve; type: in vivo, nude mice; conditions: regimen as 3-7, start = 1, control 2.91±0.30
Method: For each of, 16 mg/kg of Micelle-ADR or 8 mg/kg of ADR as anticancer agent, or no anticancer agent, administration via the tail vein was carried out three times spaced by four days. As TGF-β inhibitor, 1 mg/kg of LY364947 (hereinafter, referred to as LY) or control was administered three times a week intraperitoneally. The experiment was carried out for the six conditions combining the above 3×2 types [of administration modes], with n=5 each. For these animals, the approximated values of tumor volume were observed continuously for 16 days. For the tumor volumes, those that have been approximated by long side of tumor mass×(short side)^2 were compared, taking 1 as the value at the administration start time for each tumor mass.

phosphorylated Smad2 [3] = assay: 3-3 Phosphorylated Smad2 staining in BxPC3 cancer tissue one hour after LY364947; type: in vivo, nude mice; conditions: 1 h
Method: As TGF-β inhibitor, 1 mg/kg, 25 mg/kg or a control of LY was administered once intraperitoneally. The animals were sacrificed one hour after administration to extract the tumor, and immuno-histological staining of the tumor was carried out using an antibody against phosphorylated Smad2 as well as an antibody against PECAM1.

phosphorylated Smad2 [4] = assay: 3-4 Phosphorylated Smad2 in nucleated blood cells by FACS one hour after LY364947; type: in vivo, nude mice; conditions: LY 1 mg/kg i.p., 1 h, control group 35.7%
Method: Cancer-transplanted nude mice were administered once intraperitoneally with 1 mg/kg of LY as TGF-β inhibitor or a control. One hour after administration, whole blood collection was carried out, hemolysis treatment, formalin fixation, cell membrane perforation by methanol were carried out, then, staining was carried out with an antibody against phosphorylated Smad2, thereafter, the ratio of phosphorylated Smad2-positive cells was measured by FACS. In so doing, with those [samples] where only the secondary antibody was reacted serving as controls for the immuno-staining method, the gate was set so that rate of positive cell was approximately 1% in this group (P1 in FIG. 5-2), and the ratio of phosphorylated Smad2-positive cells was measured for the TGF-β inhibitor-administered group and the non-treated group.

[5] = test system: Smad-4-deficient pancreatic adenocarcinoma cells (BxPC3); assay: 3-6 BxPC3 xenograft growth curve, single administration of ADR, Doxil, Micelle-ADR with or without LY; type: in vivo, nude mice; conditions: day 14, single dose 8 mg/kg anticancer agent i.v., LY 1 mg/kg i.p. once, start = 1, control 4.77±0.50
Method: For each of 8 mg/kg of Doxil, 8 mg/kg of Micelle-ADR or 8 mg/kg of ordinary ADR as anticancer agent, or no anticancer agent, which was administrated via the tail vein, administration was carried out only once. […] Inhib in the figures) as TGF-β inhibitor or a control.

[6] = test system: neovasculature in BxPC3 tumor tissue; assay: 3-1 BxPC3 xenograft, neovasculature morphological change and dextran distribution; type: in vivo, nude mice
Method: Twenty-four hours before sacrificing the animals, 1 mg/kg of LY364947 (hereinafter, referred to as LY) as TGF-β inhibitor or a control was administered once intraperitoneally. […] Concretely, regarding the neovasculature morphology, vascular endothelial cells were recognized with an antibody against PECAM-1 (platelet endothelial cell adhesion molecule-1), vascular pericytes were recognized with an antibody against NG2 (neuroglycan 2), the proportion of the areas covered by pericytes within the total endothelial cell area, and, the areas positive for the vascular endothelium marker were quantified (hereabove, n=4 animals×10 microscopic visual fields=40), in addition, regarding dextran distribution, the distribution area thereof was quantified. In addition, after an identical model was prepared, 6 hours prior to sacrifice, macromolecular dextran with a molecular weight of 2,000,000 (Invitrogen Molecular Probes) was administered via the tail vein, and the difference in distribution in tumor tissue due to the presence or absence of inhibitor was investigated by quantification of the distribution area (n=3 animals×4 microscopic visual field=12).

neovasculature = assay: Matrigel plug assay, effects of TGF-β signaling inhibitor on neovasculature; type: in vivo, ICR mice; conditions: 500 nM LY
Method: In the present invention, increasing the leakiness of neovasculature in tumor tissue, and, depending on the circumstances, decreasing fibrosis, are phenomena that can be observed, for instance, in a dextran injection experiment (briefly, an experiment in which a mouse is used, a Matrigel in which VEGF-A and FGF-2 have been mixed is injected subcutaneously into the abdominal wall, and seven days after administering TGF-β signaling inhibitor intraperitoneally, 2,000,000 molecular weight dextran is injected, the animal is sacrificed, and the relationship between neovasculature and dextran distribution in the extracted Matrigel plug is determined: refer to Kano, M. R. et al., J. Cell Sci., 118, 3759-3768. (2005)) (refer to FIG. 2-1 and FIG. 2-2).
VEGF-A, FGF-2, and heparin were mixed into Matrigel (BD), furthermore, 500 nM of the TGF-β inhibitor LY364947 (hereinafter, referred to as LY) or 50 μg/ml of T βRII:Fc or a control was further mixed into the same gel, these were subcutaneously injected into the abdominal wall of male ICR mice, the animals were sacrificed on the 7th day to extract the Matrigel plug, and a search was carried out using immunofluorescence staining. Concretely, regarding the neovasculature morphology, vascular endothelial cells were recognized with an antibody against PECAM-1 (platelet endothelial cell adhesion molecule-1) and vascular pericytes were recognized with an antibody against SMA (a smooth muscle actin), in the LY-administered group or control group, the proportion of the areas covered by pericytes within the total endothelial cell area, and, the areas positive for the vascular endothelium marker were quantified (hereabove, n=20). In addition, 6 hours prior to sacrifice, macromolecular dextran with a molecular weight of 2,000,000 (Invitrogen Molecular Probes) was administered via the tail vein, and the difference in distribution in tumor tissue due to the presence or absence of inhibitor was investigated by quantification of the distribution area (n=21).

[7] = 3-14 Drug in vivo dynamics in general organs, Micelle-ADR or ADR with LY; parameters: species or system nude mice
Method: Each of 8 mg/kg of Micelle-ADR or 8 mg/kg of ADR as anticancer agent was administered to tumor-bearing nude mice via the tail vein. As TGF-β inhibitor, 1 mg/kg of LY or a control was administered intraperitoneally. Experiment was carried out for the four conditions combining the above 2×2 types [of administration modes], with n=3. […] In addition, the surrounding of the tail vein where the agents were administered was observation.

[8] = test system: Smad-4-deficient pancreatic adenocarcinoma cells (BxPC3); assay: 3-7 BxPC3 xenograft growth curve, three administrations of ADR or Micelle-ADR with or without LY; type: in vivo, nude mice; conditions: day 16, Micelle-ADR 16 mg/kg or ADR 8 mg/kg i.v. three times spaced by four days, LY 1 mg/kg i.p. three times a week, start = 1, control 4.69±0.46
Method: For each of, 16 mg/kg of Micelle-ADR or 8 mg/kg of ADR as anticancer agent, or no anticancer agent, administration via the tail vein was carried out three times spaced by four days. […] For these animals, the approximated values of tumor volume were observed continuously for 16 days.

[9] = test system: Smad-4-deficient pancreatic adenocarcinoma cells (BxPC3); assay: Combined effect of Gemcitabine and LY364947 on tumor volume, pancreatic adenocarcinoma xenograft model; type: in vivo, nude mice; conditions: day 21, Gem 125 mg/kg i.p. twice a week, LY 1 mg/kg i.p. three times a week, value at start = 1, control 5.56±1.59
Method: Combining Gemcitabine (hereinafter, abbreviated as Gem), administrated twice a week intraperitoneally at 125 mg/kg, and LY364947 (hereinafter, referred to as LY), administrated three times a week intraperitoneally at 1 mg/kg, three groups were established as follows: a control group, a Gem alone administration group and a LY+Gem combined application group, with n=2 each. […] The tumor volumes were approximated by long side of tumor mass×(short side)^2 and compared, taking 1 as the value at the administration start time for each tumor mass.

hepatic fibrosis = conditions: intraperitoneal injection, cited from earlier work
[10] = test system: mouse breast cancer cell line 4T1; conditions: systemic administration by intraperitoneal injection; cited from earlier work

c1ccc(-c2[nH]ncc2-c2ccnc3ccccc23)nc1 [LY364947]
dextran distribution in general organs [1]: no clear difference | morphology of existing vasculature of general organs [1]: No clear change in morphology | relative tumor volume on the last day (16th day) [2]: 2.75±0.08 | Smad2 phosphorylation in intratumoral vascular walls, magnified visual field (phosphorylated Smad2 [3]; LY 1 mg/kg i.p.): cancellation of Smad2 phosphorylation was observed | phosphorylated Smad2 staining of tumor vs control, weak magnification visual field (phosphorylated Smad2 [3]; LY 1 mg/kg i.p.): no remarkable difference | Smad2 phosphorylation in cancer cells (phosphorylated Smad2 [3]; LY 25 mg/kg i.p.): cancellation of Smad2 phosphorylation was observed in almost the entirety of the cancer cells | cells positive for phosphorylated Smad2 (phosphorylated Smad2 [4]): 16.3% | relative tumor volume on the last day [5]: 4.83±0.54 | endothelial cell marker-positive area ([6]; BxPC3 xenograft, LY 1 mg/kg i.p. once, 24 h, control 1.00±0.03, p=0.02): 1.13±0.06 | extent of coverage of endothelial cells by the pericyte ([6]; BxPC3 xenograft, LY 1 mg/kg i.p. once, 24 h, control 36.0±2.2%, p=0.00002): 23.3±1.9% | macromolecular dextran distribution area ([6]; BxPC3 xenograft, LY 1 mg/kg i.p. once, dextran MW 2,000,000 6 h before sacrifice, control 1.00±0.13, p=0.002): 2.24±0.36 | fibrosis of tumor tissue (azan staining) ([6]; LY 1 mg/kg, administered vs non-administered, P=0.336): no significant difference | total area of the vascular endothelium (neovasculature; day 7, p=0.0009): increased significantly | endothelial cell coverage of the pericytes (neovasculature; day 7, vs non-administered group, p=0.006): decreased significantly | dextran distribution area (neovasculature; dextran MW 2,000,000 i.v. 6 h before sacrifice, p<0.0001): increased approximately two-fold | organ distribution (frozen samples), LY administration vs non-administration ([7]; LY 1 mg/kg i.p., four hours): no clear difference | total amount of ADR in organs by the HPLC method, LY administration vs non-administration ([7]; Micelle-ADR 8 mg/kg i.v., LY 1 mg/kg i.p., four hours, all organs measured): no significant difference | anticancer agent-related phlebitis ([7]; combined administration of LY 1 mg/kg i.p., surrounding of the tail vein): no deterioration | relative tumor volume on the last day [8]: 4.34±0.37

Nc1ccn([C@@H]2O[C@H](CO)[C@@H](O)C2(F)F)c(=O)n1 [Gemcitabine]
relative tumor volume on the last day [9]: 4.76±0.46

COc1cccc2c1C(=O)c1c(O)c3c(c(O)c1C2=O)C[C@@](O)(C(=O)CO)C[C@@H]3O[C@H]1C[C@H](N)[C@H](O)[C@H](C)O1 [ADR, adriamycin]
relative tumor volume on the last day (16th day) [2]: 0.87±0.19 | relative tumor volume on the last day [5]: 4.70±0.32 | relative tumor volume on the last day [8]: 3.49±0.20

B1: solubilized TGF-β Type II receptor: solubilized TGF-β Type II receptor (TGF-β ligand-adsorbed) protein, literature studies (protein, UniProt P37173 23-166, looked up)
extracellular domain: TIPPHVQKSVNNDMIVTDNNGAVKFPQLCKFCDVRFSTCDNQKSCMSNCSITSICEKPQEVCVAVWRKNDENITLETVCHDPKLPYHDFILEDAASPKCIMKEKKKPGETFFMCSCSSDECNDNIIFSEEYNTSNPDLLLVIFQ
modifications: extracellular domain
notes: solubilized TGF-β Type II receptor (TGF-β ligand-adsorbed) protein, literature studies
hepatic fibrosis (hepatic fibrosis; 2.5 mg/kg): not suppressed | hepatic fibrosis (hepatic fibrosis; 5 mg/kg): suppressed | lung metastasis [10]: decreased
